This assay relates to H1975-OR xenografts. Description: H1975-OR xenograft tumor growth. It counts as in vivo, mice. The conditions noted are these: osimertinib p.o. 5 mg/kg daily, NGI-189 i.p. 10 mg/kg every other day.

As for `C=CC(=O)Nc1cc(Nc2nccc(-c3cn(C)c4ccccc34)n2)c(OC)cc1N(C)CCN(C)C` [osimertinib], the tumor response entry is on record as “did not respond”.

The values above are taken from paper PMC11643024 (bioRxiv, 2024).
